Our source for the IC50 values is article PMC5514153, “Targeting PTPRZ inhibits stem cell-like properties and tumorigenicity in glioblastoma cells” (Scientific Reports, 2017).

This experiment concerns the target T1, hPTPRS (Homo sapiens, UniProt Q13332).
T1 construct: The ICRs of PTPRG, PTPRS, and PTPRB and the catalytic domains of PTPN1 and PTPN6; GST (N); made in house; host or cells: Escherichia coli BL21
T1 sequence (Q13332 1304-1948 limits assumed): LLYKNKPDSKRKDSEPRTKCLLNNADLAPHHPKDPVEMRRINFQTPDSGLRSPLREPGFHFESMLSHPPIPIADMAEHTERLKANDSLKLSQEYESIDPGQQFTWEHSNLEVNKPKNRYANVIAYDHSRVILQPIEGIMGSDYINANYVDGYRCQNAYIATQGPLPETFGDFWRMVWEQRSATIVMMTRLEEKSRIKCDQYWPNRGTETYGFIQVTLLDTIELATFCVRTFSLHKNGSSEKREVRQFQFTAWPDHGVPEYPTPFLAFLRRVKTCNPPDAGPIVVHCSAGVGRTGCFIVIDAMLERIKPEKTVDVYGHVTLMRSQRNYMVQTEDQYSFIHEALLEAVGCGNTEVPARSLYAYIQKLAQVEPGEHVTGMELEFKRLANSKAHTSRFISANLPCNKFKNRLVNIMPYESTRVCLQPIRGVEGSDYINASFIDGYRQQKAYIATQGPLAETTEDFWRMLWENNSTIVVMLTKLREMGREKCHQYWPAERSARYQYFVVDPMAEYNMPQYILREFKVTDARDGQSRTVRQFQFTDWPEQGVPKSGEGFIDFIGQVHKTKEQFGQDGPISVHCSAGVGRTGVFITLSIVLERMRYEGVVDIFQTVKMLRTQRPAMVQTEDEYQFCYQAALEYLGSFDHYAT
In words: In vitro PTPase assay (DiFMUP), PTPRS. Format: biochemical. To be noted: 60-min preincubation. On the procedure:
Figure 4 NAZ2329, an allosteric inhibitor of R5 RPTP subfamily members. (A) Structure of NAZ2329. (B) Effect of preincubation of NAZ2329 on its inhibitory activity against PTPRZ. Recombinant human PTPRZ1 enzyme (the whole intracellular region) was premixed with NAZ2329 for the indicated times and followed by addition of a fluorogenic DiFMUP (non-specific PTP substrate, 6,8-difluoro-4-methylumbiliferyl phosphate) to measure PTP inhibitory activity. (C) Time dependence. The PTPRZ1 enzyme was added to the inhibitor–substrate mixture, and the inhibitory activity was determined at each time point relative to the vehicle control. (D) Reversibility of inhibition. […] The mixture was then 20-fold diluted, and recovered PTP activity was expressed as the relative activity compared with the vehicle-treated enzyme. […] PTPRZ1 enzymes were preincubated with NAZ2329 for 60 min, and the PTP activity was measured using DiFMUP. […]
Recombinant proteins corresponding to the entire intracellular regions (ICRs) of PTPRZ1, PTPRA, and PTPRM were expressed using a baculovirus-silkworm expression system, and purified as described. The ICRs of PTPRG, PTPRS, and PTPRB and the catalytic domains of PTPN1 and PTPN6 were expressed as glutathione-S-transferase (GST) fusion proteins from each pGEX plasmid in Escherichia coli strain BL21 (ref. [6]). […]

The structures appear in SMILES notation.

`CCOc1ccc(C(F)(F)F)cc1CSc1ccsc1C(=O)NS(=O)(=O)c1ccccc1` [NAZ2329]: the IC50 was found to be 23.7 µM.
